How the values were obtained:
[1] = xn = mol fraction of the nth substance listed; conditions: 298.15 K, 101 kPa, Liquid; for speed of sound: Quartz crystal interferometer (Mittal Enterprises, India)
[2] = 298.15 K, 101.33 kPa, Liquid; for viscosity: Capillary tube (Ostwald / Ubbelohde) method; for speed of sound: Quartz crystal interferometer (Mittal Enterprises, India); for mass density: Vibrating tube method

CC1CCCCC1 [methylcyclohexane] + CC(C)O
[1]
Conditions	mass density [kg/m3]	speed of sound [m/s]	viscosity [mPa·s]
x1 = 0.0648	778.57	–	1.771
x1 = 0.1102	776.98	–	1.589
x1 = 0.1123	–	1143	–
x1 = 0.1475	775.78	–	1.462
x1 = 0.2041	774.1	–	1.315
x1 = 0.2053	–	1143	–
x1 = 0.2422	773.07	–	1.232
x1 = 0.303	771.57	–	1.113
x1 = 0.3034	–	1144	–
x1 = 0.3511	770.5	–	1.034
x1 = 0.3937	–	1148	–
x1 = 0.3947	769.61	–	0.975
x1 = 0.4603	768.4	–	0.896
x1 = 0.4954	767.81	–	0.86
x1 = 0.5031	–	1155	–
x1 = 0.5589	766.86	–	0.801
x1 = 0.578	766.6	–	0.789
x1 = 0.5788	–	1160	–
x1 = 0.6707	765.53	–	0.734
x1 = 0.6715	–	1168	–
x1 = 0.7466	–	1176	–
x1 = 0.7715	–	1178	–
x1 = 0.7727	764.75	–	0.695
x1 = 0.8299	–	1184	–
x1 = 0.8993	–	1194	–
x1 = 0.9011	764.45	–	0.679
x1 = 0.9472	–	1201	–

CC1CCCCC1 [methylcyclohexane] + CCC(C)O
[1]
Conditions	mass density [kg/m3]	speed of sound [m/s]	viscosity [mPa·s]
x1 = 0.0988	–	1207	–
x1 = 0.1026	796.47	–	2.207
x1 = 0.1536	793.6	–	1.933
x1 = 0.2015	791.01	1199	1.72
x1 = 0.2544	788.28	–	1.509
x1 = 0.3058	–	1193	–
x1 = 0.3307	784.56	–	1.281
x1 = 0.3604	783.2	–	1.216
x1 = 0.3993	–	1190	–
x1 = 0.4086	781.07	–	1.107
x1 = 0.4679	778.61	–	1.002
x1 = 0.5007	–	1189	–
x1 = 0.5012	777.3	–	0.953
x1 = 0.5872	774.19	–	0.856
x1 = 0.6001	–	1189	–
x1 = 0.6926	770.91	–	0.77
x1 = 0.7	–	1192	–
x1 = 0.7737	–	1196	–
x1 = 0.7844	768.54	–	0.729
x1 = 0.8916	766.35	–	0.696
x1 = 0.8996	–	1203	–
x1 = 0.9489	–	1206	–

CC1CCCCC1 [methylcyclohexane] + CCO
[1]
Conditions	mass density [kg/m3]	speed of sound [m/s]	viscosity [mPa·s]
x1 = 0.0499	782.02	–	1.034
x1 = 0.1024	779.14	–	0.987
x1 = 0.1037	–	1146	–
x1 = 0.1492	776.99	–	0.949
x1 = 0.1893	–	1151	–
x1 = 0.194	775.25	–	0.915
x1 = 0.2467	773.53	–	0.886
x1 = 0.313	771.77	–	0.853
x1 = 0.3143	–	1157	–
x1 = 0.3363	771.24	–	0.841
x1 = 0.4007	–	1162	–
x1 = 0.4015	769.94	–	0.81
x1 = 0.4438	769.21	–	0.79
x1 = 0.4752	768.72	–	0.776
x1 = 0.4788	–	1166	–
x1 = 0.5844	767.23	–	0.732
x1 = 0.5884	–	1173	–
x1 = 0.6993	–	1181	–
x1 = 0.7002	765.95	–	0.692
x1 = 0.8147	765.03	–	0.672
x1 = 0.8209	–	1191	–
x1 = 0.8864	764.74	–	0.667
x1 = 0.8943	–	1196	–
x1 = 0.9473	–	1202	–

CCCC(C)O (stereo not given) [pentan-2-ol]
[2]
Conditions	mass density [kg/m3]	speed of sound [m/s]	viscosity [mPa·s]
–	805.4	1235	3.421

CCCC(C)O (stereo not given) [pentan-2-ol] + CC1CCCCC1
[1]
Conditions	mass density [kg/m3]	speed of sound [m/s]	viscosity [mPa·s]
x2 = 0.067	801.75	–	2.764
x2 = 0.1011	799.88	–	2.501
x2 = 0.1026	–	1227	–
x2 = 0.1561	796.91	–	2.148
x2 = 0.2018	–	1219	–
x2 = 0.2088	794.12	–	1.863
x2 = 0.2653	791.21	–	1.618
x2 = 0.2991	789.53	–	1.488
x2 = 0.3077	–	1211	–
x2 = 0.3581	786.7	–	1.317
x2 = 0.3974	784.89	–	1.219
x2 = 0.3999	–	1206	–
x2 = 0.4481	782.64	–	1.113
x2 = 0.4885	780.93	–	1.044
x2 = 0.4976	–	1203	–
x2 = 0.5997	–	1202	–
x2 = 0.6007	776.49	–	0.901
x2 = 0.6973	773.05	–	0.819
x2 = 0.6984	–	1204	–
x2 = 0.8001	769.78	–	0.75
x2 = 0.8007	–	1207	–
x2 = 0.8981	767.12	–	0.704
x2 = 0.8998	–	1211	–
x2 = 0.9488	–	1211	–

CC(C)O [propan-2-ol]
[2]
Conditions	mass density [kg/m3]	speed of sound [m/s]	viscosity [mPa·s]
–	781.06	1142	2.098

Reference: the NIST ThermoML archive (doi:10.1016/j.jct.2005.04.019)
